Test results published in patent US7662404B2, “Transdermal delivery system for dried particulate or lyophilized peptides and polypeptides” (TransPharma Medical Ltd., priority 2002, dated 2010).
Several values for one entry are separate records, joined by “and”; a condition that tells them apart may be missing. Identical values can stand only once. Like-named read-outs stand apart in the source and are kept apart here.

Key:
[1] = tested on: plasma calcium ions and phosphorous; test: Plasma calcium ions and phosphorus in women after hPTH (1-34) (Example 13); type: in vivo, human; conditions: four women, all transdermal and SC treatments
Protocol: (§1) Each female adult received five treatments of hPTH (1-34) with a minimum of 2 day clearance between treatments. The treatments were as follows: • 1. Three ViaDerm applications (final density of 300 micro-channels/cm^2) on one site of the upper arm. Two printed patches, each containing 100 μg hPTH (1-34), were placed over the application area (each for 6 hours). • 2. Two ViaDerm applications (final density of 150 micro-channels/cm^2) on one site of the upper arm. Two printed patches, each containing 200 μg hPTH (1-34), were placed over the application area. • 3. Three ViaDerm applications (final density of 300 micro-channels/cm^2) on one site of the upper arm. Two printed patches, each containing 200 μg hPTH (1-34), were placed over the application area. • 4. Subcutaneous (SC) injection of 20 μg hPTH (1-34) (FORTEO®, Teriparatide was purchased from Ely Lilly, Indianapolis, Ind., USA). • 5. SC injection of 60 μg hPTH (1-34) (FORTEO®).
(§2) Plasma hPTH (1-34), calcium ions and phosphate ions were determined by Eliza using commercial kits.

[2] = Plasma hPTH (1-34) in female adult healthy human volunteers, ViaDerm and printed patches or SC (Example 13); type: in vivo; parameters: AUC (individual subjects): unit not given here; conditions: for Cmax (individual subjects): women; for Cmax (individual subjects) / AUC (individual subjects) / AUC: 12 h; for AUC / Tmax / Cmax: female, human, plasma; for AUC: read-out: AUC AVG
Protocol: Transdermal drug delivery study of hPTH (1-34) in four female adult healthy human volunteers was performed using ViaDerm and printed patches.
To evaluate the transdermal delivery of hPTH (1-34), printed patches containing 100 μg or 200 μg hPTH (1-34) (FORTEO®, Teriparatide purchased from Ely Lilly, Indianapolis, Ind., USA) were prepared. Patch area was 1.44 cm^2.
ViaDerm parameters: electrode array of 75 or 100 micro-channels/cm^2; ViaDerm was applied two or three times generating micro-channels at a density of 150 or 300 micro-channels/cm^2; Voltage: 290 volts, constant voltage; Burst length: 5000 μsec; Maximal current: 50 mA.
as §1, §2

[3] = other: transdermal printed patch on ViaDerm-treated skin, 200 ug, T-2: 150 micro-channels/cm^2, 2 printed patches each 200 μg, mean of 4 women
[4] = other: transdermal printed patch on ViaDerm-treated skin, 200 ug, T-3: 300 micro-channels/cm^2, 2 printed patches each 200 μg, mean of 4 women

Compound: CC[C@H](C)[C@H](NC(=O)[C@H](CCC(=O)O)NC(=O)[C@H](CO)NC(=O)[C@@H](NC(=O)[C@@H](N)CO)C(C)C)C(=O)N[C@@H](CCC(N)=O)C(=O)N[C@@H](CC(C)C)C(=O)N[C@@H](CCSC)C(=O)N[C@@H](Cc1cnc[nH]1)C(=O)N[C@@H](CC(N)=O)C(=O)N[C@@H](CC(C)C)C(=O)NCC(=O)N[C@@H](CCCCN)C(=O)N[C@@H](Cc1cnc[nH]1)C(=O)N[C@@H](CC(C)C)C(=O)N[C@@H](CC(N)=O)C(=O)N[C@@H](CO)C(=O)N[C@@H](CCSC)C(=O)N[C@@H](CCC(=O)O)C(=O)N[C@@H](CCCN=C(N)N)C(=O)N[C@H](C(=O)N[C@@H](CCC(=O)O)C(=O)N[C@@H](Cc1c[nH]c2ccccc12)C(=O)N[C@@H](CC(C)C)C(=O)N[C@@H](CCCN=C(N)N)C(=O)N[C@@H](CCCCN)C(=O)N[C@@H](CCCCN)C(=O)N[C@@H](CC(C)C)C(=O)N[C@@H](CCC(N)=O)C(=O)N[C@@H](CC(=O)O)C(=O)N[C@H](C(=O)N[C@@H](Cc1cnc[nH]1)C(=O)N[C@@H](CC(N)=O)C(=O)N[C@@H](Cc1ccccc1)C(=O)O)C(C)C)C(C)C [hPTH (1-34)]
- plasma concentrations of calcium ions [1]: elevation of calcium ions
- plasma concentrations of phosphorus [1]: decrease of phosphorous
- Cmax (individual subjects) ([2]; T-1: 300 micro-channels/cm^2, 2 printed patches each 100 μg (dose 200 ug)): 0.094366 ng/mL and 0.394054 ng/mL and 0.437693 ng/mL and 0.39756 ng/mL
- AUC (individual subjects) ([2]; T-1: 300 micro-channels/cm^2, 2 printed patches each 100 μg): 346 and 1340 and 1097 and 1067
- Cmax AVG ([2]; T-1: 300 micro-channels/cm^2, 2 printed patches each 100 μg, mean of 4 women): 0.330918 ng/mL
- Cmax (individual subjects) ([2]; T-2: 150 micro-channels/cm^2, 2 printed patches each 200 μg (dose 400 ug)): 0.072528 ng/mL and 0.463893 ng/mL and 1.293464 ng/mL and 0.739311 ng/mL
- AUC (individual subjects) ([2]; T-2: 150 micro-channels/cm^2, 2 printed patches each 200 μg): 398 and 1498 and 3743 and 2128
- Cmax AVG ([2]; T-2: 150 micro-channels/cm^2, 2 printed patches each 200 μg, mean of 4 women): 0.642299 ng/mL
- Cmax (individual subjects) ([2]; T-3: 300 micro-channels/cm^2, 2 printed patches each 200 μg (dose 400 ug)): 0.296887 ng/mL and 0.534872 ng/mL and 1.304179 ng/mL and 0.46945 ng/mL
- AUC (individual subjects) ([2]; T-3: 300 micro-channels/cm^2, 2 printed patches each 200 μg): 886 and 1251 and 4649 and 1327
- Cmax AVG ([2]; T-3: 300 micro-channels/cm^2, 2 printed patches each 200 μg, mean of 4 women): 0.651347 ng/mL
- Tmax (individual subjects) ([2]; T-4: SC injection of 20 μg): 6.0 h and 0.3 h and 0.5 h
- AUC (individual subjects) ([2]; T-4: SC injection of 20 μg): 172 and 158 and 176
- Cmax AVG ([2]; T-4: SC injection of 20 μg, mean of 4 women): 0.029291 ng/mL
- Cmax (individual subjects) ([2]; T-4: SC injection of 20 μg): 0.012196 ng/mL and 0.037556 ng/mL and 0.02935 ng/mL and 0.038062 ng/mL
- Tmax (individual subjects) ([2]; T-5: SC injection of 60 μg): 0.5 h
- AUC (individual subjects) ([2]; T-5: SC injection of 60 μg): 84 and 100 and 474 and 399
- Cmax AVG ([2]; T-5: SC injection of 60 μg, mean of 4 women): 0.111514 ng/mL
- Cmax (individual subjects) ([2]; T-5: SC injection of 60 μg): 0.059209 ng/mL and 0.066482 ng/mL and 0.185324 ng/mL and 0.13504 ng/mL
- AUC ([2]; 100 ug, T-1: 300 micro-channels/cm^2, 2 printed patches each 100 μg, mean of 4 women): 0.963 ng·h/mL
- Tmax ([2]; 100 ug, T-1: 300 micro-channels/cm^2, 2 printed patches each 100 μg, read-out: Tmax (individual subjects)): 1 h
- Cmax ([2]; other: transdermal printed patch on ViaDerm-treated skin, 100 ug, T-1: 300 micro-channels/cm^2, 2 printed patches each 100 μg, mean of 4 women): 0.331 ng/mL
- Tmax ([2]; other: transdermal printed patch on ViaDerm-treated skin, 100 ug, T-1: 300 micro-channels/cm^2, 2 printed patches each 100 μg, mean of 4 women, read-out: Tmax AVG): 1.5 h
- AUC [2, 3]: 1.94 ng·h/mL
- Cmax [2, 3]: 0.642 ng/mL
- Tmax ([2]; other: transdermal printed patch on ViaDerm-treated skin, 200 ug, T-2: 150 micro-channels/cm^2, 2 printed patches each 200 μg, mean of 4 women, read-out: Tmax AVG): 2.1 h
- Tmax ([2]; other: transdermal printed patch on ViaDerm-treated skin, 200 ug, T-2: 150 micro-channels/cm^2, 2 printed patches each 200 μg, read-out: Tmax (individual subjects)): 1.5 h
- AUC [2, 4]: 2.03 ng·h/mL
- Cmax [2, 4]: 0.651 ng/mL
- Tmax ([2]; other: transdermal printed patch on ViaDerm-treated skin, 200 ug, T-3: 300 micro-channels/cm^2, 2 printed patches each 200 μg, mean of 4 women, read-out: Tmax AVG): 2 h
